Measurements as given in patent publication US20240262842A1, “SMALL MOLECULE INHIBITORS OF KRAS G12C MUTANT” (Merck Sharp & Dohme LLC, priority 2021, published 2024).

target: biotinylated KRAS G12C protein (GMP-PNP loaded) and GST-tagged Ras binding domain of c-RAF (Homo sapiens, UniProt P01116, C118S/C51S/C80L/G12C); experiment: RAS:RAF-RBD binding assay (TR-FRET); conditions: 30-minute incubation of compound with KRAS G12C before RAF-RBD; Table 4; read-out: IC50
Sequence (P01116 with tags, fused parts or gaps isoform P01116-2 G12C/C51S/C80L/C118S): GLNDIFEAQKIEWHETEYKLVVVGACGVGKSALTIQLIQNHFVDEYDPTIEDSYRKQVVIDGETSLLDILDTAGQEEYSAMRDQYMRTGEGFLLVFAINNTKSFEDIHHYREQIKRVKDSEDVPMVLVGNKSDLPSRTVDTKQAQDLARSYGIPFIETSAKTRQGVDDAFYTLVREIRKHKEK

IC50 [nM] | SMILES
7.34 | Cc1nc2c3c(c(C(F)(F)F)cc2n1C)-c1cccn2c(C(=O)c4cc(F)c(NC(=O)/C=C/CN[C@@H]5CCCC[C@@H]5O)c(F)c4)cc(c12)CCO3 [Example 264]
12.3 | Cc1nc2c3c(c(C(F)(F)F)cc2n1C)-c1cccn2c(C(=O)c4cc(F)c(NC(=O)/C=C/CN[C@H]5CCCC[C@H]5O)c(F)c4)cc(c12)CCO3 [Example 265]
16.1 | CO[C@@H]1CCCC[C@@H]1NC/C=C/C(=O)Nc1c(F)cc(C(=O)c2cc3c4c(cccn24)-c2c(C(F)(F)F)cc4c(nc(C)n4C)c2OCC3)cc1F [Example 266, (E)-N-(4-(9,10-dimethyl-7-(trifluoromethyl)-13,14-dihydro-9H-imidazo-[4″,5″:5′,6′]benzo[1′,2′: 2,3]oxocino[4,5,6-hi]-indolizine-2-carbonyl)-2,6-difluorophenyl)-4-(((1S,2R)-2-methoxy-cyclohexyl)amino)but-2-enamide]
3.69 | Cc1nc2c3c(c(C(F)(F)F)cc2n1C)-c1cccn2c(C(=O)c4cc(F)c(NC(=O)/C=C/CNC5(C)CCOCC5)c(F)c4)cc(c12)CCO3 [Example 267, mono((E)-2-(3,5-difluoro-4-(4-((4-methyltetrahydro-2H-pyran-4-yl)ammonio)-but-2-enamido)benzoyl)-9,10-dimethyl-7-(trifluoro-methyl)-13,14-dihydro-9H-imidazo[4″,5″:5′,6′]-benzo[1′,2′:2,3]oxocino-[4,5,6-hi]indolizin-11-ium)mono(2,2,2-trifluoro-acetate)]
12.8 | CO[C@H]1CCCC[C@H]1NC/C=C/C(=O)Nc1c(F)cc(C(=O)c2cc3c4c(cccn24)-c2c(C(F)(F)F)cc4c(nc(C)n4C)c2OCC3)cc1F [Example 268, (E)-N-(4-(9,10-dimethyl-7-(trifluoromethyl)-13,14-dihydro-9H-imidazo-[4″,5″:5′,6′]benzo[1′,2′: 2,3]oxocino[4,5,6-hi]-indolizine-2-carbonyl)-2,6-difluorophenyl)-4-(((1R,2S)-2-methoxy-cyclohexyl)amino)but-2-enamide]
20.4 | Cc1nc2c3c(c(C(F)(F)F)cc2n1C)-c1cccn2c(C(=O)c4cc(F)c(NC(=O)/C=C/CN[C@@H]5CCCC(F)(F)[C@@H]5O)c(F)c4)cc(c12)CCO3 [Example 274]
57.5 | Cc1nc2c3c(c(C(F)(F)F)cc2n1C)-c1cccn2c(C(=O)c4cc(F)c(NC(=O)/C=C/CN5C[C@H](O)[C@@H](F)C5)c(F)c4)cc(c12)CCO3 [Example 275, (3S,4S)-1-((E)-4-((4-(9,10-dimethyl-7-(trifluorometh-yl)-13,14-dihydro-9H-imidazo[4″,5″:5′,6′]benzo-[1′,2′:2,3]oxocino[4,5,6-hi]indolizine-2-carbonyl)-2,6-difluorophenyl)amino)-4-oxobut-2-en-1-yl)-3-fluoro-4-hydroxypyrrol-idin-1-ium 2,2,2-trifluoro-acetate]
8.05 | Cc1nc2c3c(c(C(F)(F)F)cc2n1C)-c1cccn2c(C(=O)c4cc(F)c(NC(=O)/C=C/CNCC5(F)CC5)c(F)c4)cc(c12)CCO3 [Example 276, (E)-4-((4-(9,10-dimethyl-7-(trifluoromethyl)-13,14-dihydro-9H-imidazo-[4″,5″:5′,6′]benzo[1′,2′: 2,3]oxocino[4,5,6-hi]-indolizine-2-carbonyl)-2,6-difluorophenyl)-amino)-N-((1-fluorocyclo-propyl)methyl)-4-oxobut-2-en-1-aminium 2,2,2-trifluoroacetate]
26.4 | Cc1nc2c3c(c(C(F)(F)F)cc2n1C)-c1cccn2c(C(=O)c4cc(F)c(NC(=O)/C=C/CNC5CC(F)(F)C5)c(F)c4)cc(c12)CCO3 [Example 277, (E)-N-(4-((4-(9,10-dimethyl-7-(trifluoro-methyl)-13,14-dihydro-9H-imidazo[4″,5″:5′,6′]-benzo[1′,2′:2,3]oxocino-[4,5,6-hi]indolizine-2-carbonyl)-2,6-difluoro-phenyl)amino)-4-oxobut-2-en-1-yl)-3,3-difluoro-cyclobutan-1-aminium 2,2,2-trifluoroacetate]
5.73 | Cc1nc2c3c(c(C(F)(F)F)cc2n1C)-c1cccn2c(C(=O)c4cc(F)c(NC(=O)/C=C/CNCC5(CO)COC5)c(F)c4)cc(c12)CCO3 [Example 279, (E)-4-((4-(9,10-dimethyl-7-(trifluoromethyl)-13,14-dihydro-9H-imidazo-[4″,5″:5′,6′]benzo[1′,2′: 2,3]oxocino[4,5,6-hi]-indolizine-2-carbonyl)-2,6-difluorophenyl)amino)-N-((3-(hydroxymethyl)oxetan-3-yl)methyl)-4-oxobut-2-en-1-aminium 2,2,2-trifluoroacetate]
37.7 | Cc1nc2c3c(c(C(F)(F)F)cc2n1C)-c1cccn2c(C(=O)c4cc(F)c(NC(=O)/C=C/CN5CC6(CCOCC6)C5)c(F)c4)cc(c12)CCO3 [Example 280, (E)-2-(4-((4-(9,10-dimeth-yl-7-(trifluoromethyl)-13,14-dihydro-9H-imidazo[4″,5″:5′,6′]benzo-[1′,2′:2,3]oxocino[4,5,6-hi]indolizine-2-carbonyl)-2,6-difluorophenyl)amino)-4-oxobut-2-en-1-yl)-7-oxa-2-azaspiro[3.5]nonan-2-ium 2,2,2-trifluoroacetate]
3.8 | Cc1nc2c3c(c(C(F)(F)F)cc2n1C)-c1cccn2c(C(=O)c4cc(F)c(NC(=O)/C=C/CNCC5(CO)CC5)c(F)c4)cc(c12)CCO3 [Example 281, (E)-4-((4-(9,10-dimethyl-7-(trifluoromethyl)-13,14-dihydro-9H-imidazo-[4″,5″:5′,6′]benzo[1′,2′: 2,3]oxocino[4,5,6-hi]-indolizine-2-carbonyl)-2,6-difluorophenyl)-amino)-N-((1-(hydroxy-methyl)cyclopropyl)meth-yl)-4-oxobut-2-en-1-aminium 2,2,2-trifluoro-acetate]
64.7 | CN1CCc2cc(C(=O)c3cc(F)c(NC(=O)/C=C/CNC4(C)COC4)c(F)c3)n3cccc(c23)-c2c(C(F)(F)F)cc3c(cnn3C)c21 [Example 283, (E)-N-(4-(9,12-dimethyl-7-(trifluoromethyl)-9,12,13,14-tetrahydroindolizino[8′,1′:4,5,6]azocino[2,3-e]indazole-2-carbonyl)-2,6-difluorophenyl)-4-((3-methyloxetan-3-yl)amino)but-2-enamide]
85 | Cc1nc2c3c(c(C(F)(F)F)cc2n1C)-c1cccn2c(C(=O)c4cc(F)c(NC(=O)/C=C/CN5CC(F)C5)c(F)c4)cc(c12)CCN3C [Example 285, (E)-N-(2,6-difluoro-4-(9,10,12-trimethyl-7-(trifluoromethyl)-9,12,13,14-tetrahydroimidazo[4″,5″:5′,6′]benzo[1′,2′:2,3]azocino[4,5,6-hi]indolizine-2-carbonyl)phenyl)-4-(3-fluoroazetidin-1-yl)but-2-enamide]
92.8 | COCc1nc2c3c(c(OC)cc2n1C)-c1cccn2c(C(=O)c4cc(F)c(NC(=O)/C(F)=C/CNC5(C)CC5)c(F)c4)cc(c12)CCN3C [Example 286, (Z)-N-(2,6-difluoro-4-(7-methoxy-10-(methoxymethyl)-9,12-dimethyl-9,12,13,14-tetrahydroimidazo[4″,5″:5′,6′]benzo[1′,2′:2,3]azocino[4,5,6-hi]indolizine-2-carbonyl)phenyl)-2-fluoro-4-((1-methylcyclopropyl)amino)but-2-enamide]
8.15 | COCc1nc2c3c(c(OC)cc2n1C)-c1cccn2c(C(=O)c4cc(F)c(NC(=O)/C=C/CNC(C)(C)C)c(F)c4)cc(c12)CCN3C [Example 288, mono((E)-2-(4-(4-(tert-butylammonio)but-2-enamido)-3,5-difluoro-benzoyl)-7-methoxy-10-(methoxymethyl)-9,12-dimethyl-9,12,13,14-tetra-hydroimidazo[4″,5″:5′,6′]-benzo[1′,2′:2,3]azocino-[4,5,6-hi]indolizin-11-ium) mono-(2,2,2-trifluoroacetate)]
68.8 | COCc1nc2c3c(c(OC)cc2n1C)-c1cccn2c(C(=O)c4cc(F)c(NC(=O)/C=C/CN5CC[C@H](O)C5)c(F)c4)cc(c12)CCN3C [Example 289, mono(2-(3,5-difluoro-4-((E)-4-((3S)-3-hydroxy-pyrrolidin-1-ium-1-yl)but-2-enamido)benzoyl)-7-methoxy-10-(methoxy-methyl)-9,12-dimethyl-9,12,13,14-tetrahydro-imidazo[4″,5″:5′,6′]benzo-[1′,2′:2,3]azocino[4,5,6-hi]indolizin-11-ium) mono(2,2,2-trifluoro-acetate)]
11.1 | COCc1nc2c3c(c(OC)cc2n1C)-c1cccn2c(C(=O)c4cc(F)c(NC(=O)/C=C/CNC(C)(C)C5CC5)c(F)c4)cc(c12)CCN3C [Example 290, mono((E)-2-(4-(4-((2-cyclopropylpropan-2-yl)-ammonio)but-2-enamido)-3,5-difluorobenzoyl)-7-methoxy-10-(methoxy-methyl)-9,12-dimethyl-9,12,13,14-tetrahydro-imidazo[4″,5″:5′,6′]benzo-[1′,2′:2,3]azocino[4,5,6-hi]indolizin-11-ium) mono(2,2,2-trifluoro-acetate)]
5.55 | COCc1nc2c3c(c(OC)cc2n1C)-c1cccn2c(C(=O)c4cc(F)c(NC(=O)/C=C/CNC5CC6(COC6)C5)c(F)c4)cc(c12)CCN3C [Example 291, (E)-4-((2-oxaspiro[3.3]-heptan-6-yl)amino)-N-(2,6-difluoro-4-(7-meth-oxy-10-(methoxymethyl)-9,12-dimethyl-9,12,13,14-tetrahydroimidazo[4″,5″: 5′,6′]benzo[1′,2′:2,3]-azocino[4,5,6-hi]indol-izine-2-carbonyl)phenyl) but-2-enamide]

SMILES | IC50 [nM]
Cc1nc2c3c(c(C(F)(F)F)cc2n1C)-c1cccn2c(C(=O)c4cc(F)c(NC(=O)C(F)=CCN5CCCC5CO)c(F)c4)cc(c12)CCO3 [Example 294, mono(2-(3,5-difluoro-4-((Z)-2-fluoro-4-(2S)-2-(hydroxymethyl)pyrrol-idin-1-ium-1-yl)but-2-enamido)benzoyl)-9,10-dimethyl-7-(trifluorometh-yl)-13,14-dihydro-9H-imidazo[4″,5″:5′,6′]benzo-[1′,2′:2,3]oxocino[4,5,6-hi]indolizin-11-ium) mono(2,2,2-trifluoro-acetate)] | 59.6
